US20120064062A1 (priority 2010, published 2012)
Where a SMILES comes first, the peptide text is derived from it. [ ]: non-standard residue; d: D form. The star is where a group is joined. Sta = CC(C)C[C@H](N)[C@@H](O)CC(=O)O; Isovaleryl = CC(C)CC(=O)*

Columns and labels:
Y. pestis Pla = Y. pestis Pla (Yersinia pestis, UniProt P17811); experiment: biochemical
Pla [1] = molecular target: T1, Pla (Yersinia pestis, UniProt P17811); experiment: biochemical
Plasmin = Plasmin (Homo sapiens, UniProt P00747); experiment: Plasmin inhibitory activity counter-screen (coupling enzyme); type: biochemical; conditions: z-score = number of standard deviations the enzymatic activity falls below the DMSO non-inhibitory control
cathepsin E = molecular target: T2, cathepsin E (Homo sapiens, UniProt P14091); experiment: Cathepsin E fluorometric counter-screen; type: biochemical; conditions: z-score = number of standard deviations below DMSO control
T2 construct: purchased R&D Systems 1294-AS-010
T2 sequence (P14091 54-396): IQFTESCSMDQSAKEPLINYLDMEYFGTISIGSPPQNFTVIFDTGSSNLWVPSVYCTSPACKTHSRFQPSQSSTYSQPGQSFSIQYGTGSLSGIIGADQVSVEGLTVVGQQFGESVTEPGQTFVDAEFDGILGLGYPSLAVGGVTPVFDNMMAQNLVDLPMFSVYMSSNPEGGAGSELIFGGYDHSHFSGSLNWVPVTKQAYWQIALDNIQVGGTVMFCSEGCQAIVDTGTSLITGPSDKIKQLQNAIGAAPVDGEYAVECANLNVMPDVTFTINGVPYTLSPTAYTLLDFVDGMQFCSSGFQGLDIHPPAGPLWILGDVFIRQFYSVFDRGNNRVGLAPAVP

HIV-1 protease = molecular target: T3, HIV-1 protease (Human immunodeficiency virus type 1 group M subtype B, UniProt P04585); experiment: HIV-1 protease counter-screen; type: biochemical; conditions: % of the enzymatic activity of a DMSO non-inhibitory control
T3 construct: Plasmin, tPA, uPA, Cathepsin D, Cathepsin E, and HIV-1 protease

[2] = molecular target: T4, urokinase type plasminogen activator (uPA) (Homo sapiens, UniProt P00749); experiment: uPA plasminogen activator counter-screen (Glu-Plg, S2251); type: biochemical; conditions: z-score = number of standard deviations below DMSO control
T4 construct: purchased US Biological, Inc. U2605-01

cathepsin D = molecular target: T5, cathepsin D (Homo sapiens, UniProt P07339); experiment: Cathepsin D fluorometric counter-screen; type: biochemical; conditions: z-score = number of standard deviations below DMSO control
T5 construct: purchased R&D Systems 1014-AS-010

[3] = Cytotoxicity to HeLa cells in serum-free culture (MTS); conditions: human
[4] = molecular target: T6, tissue plasminogen activator (tPA) (Homo sapiens, UniProt P00750); experiment: tPA plasminogen activator counter-screen (Glu-Plg, S2251); type: biochemical; conditions: z-score = number of standard deviations below DMSO control
T6 construct: purchased US Biological, Inc. T5600-30

Pla [5] = molecular target: T1, Pla; type: biochemical
Target sequence in this assay (P17811 21-312 limits assumed): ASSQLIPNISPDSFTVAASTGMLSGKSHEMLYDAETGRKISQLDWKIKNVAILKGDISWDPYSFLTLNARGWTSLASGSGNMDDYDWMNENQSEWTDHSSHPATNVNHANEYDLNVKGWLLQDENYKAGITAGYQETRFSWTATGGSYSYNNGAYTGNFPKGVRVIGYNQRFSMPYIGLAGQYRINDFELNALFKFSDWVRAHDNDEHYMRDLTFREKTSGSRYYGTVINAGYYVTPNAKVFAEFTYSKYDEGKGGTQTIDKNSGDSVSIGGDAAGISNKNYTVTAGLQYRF

Sequence of Plasmin (P00747 581-810 limits assumed): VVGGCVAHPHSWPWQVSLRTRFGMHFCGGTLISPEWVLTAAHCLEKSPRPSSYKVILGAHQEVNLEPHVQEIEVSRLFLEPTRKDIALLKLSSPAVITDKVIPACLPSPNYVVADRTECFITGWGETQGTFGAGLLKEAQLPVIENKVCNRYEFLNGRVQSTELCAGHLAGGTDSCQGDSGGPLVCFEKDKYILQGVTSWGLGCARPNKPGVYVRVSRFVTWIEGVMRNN
Sequence of Plasmin (P00747 97-580 partner limits assumed): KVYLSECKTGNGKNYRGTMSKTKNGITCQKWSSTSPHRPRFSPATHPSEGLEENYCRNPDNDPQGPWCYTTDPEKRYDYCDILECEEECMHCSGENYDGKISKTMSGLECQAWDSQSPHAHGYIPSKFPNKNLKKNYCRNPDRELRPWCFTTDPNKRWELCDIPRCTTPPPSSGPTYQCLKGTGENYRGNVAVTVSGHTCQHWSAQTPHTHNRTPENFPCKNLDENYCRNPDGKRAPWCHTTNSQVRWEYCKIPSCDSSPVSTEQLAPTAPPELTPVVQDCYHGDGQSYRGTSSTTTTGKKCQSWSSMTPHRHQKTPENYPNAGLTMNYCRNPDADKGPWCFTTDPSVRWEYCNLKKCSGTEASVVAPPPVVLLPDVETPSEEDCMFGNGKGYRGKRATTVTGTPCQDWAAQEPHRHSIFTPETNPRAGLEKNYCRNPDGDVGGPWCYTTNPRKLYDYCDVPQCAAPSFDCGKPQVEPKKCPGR
Sequence of Y. pestis Pla (P17811 21-312 limits assumed): as the sequence (P17811 21-312 limits assumed) above
T6 sequence (P00750 36-562): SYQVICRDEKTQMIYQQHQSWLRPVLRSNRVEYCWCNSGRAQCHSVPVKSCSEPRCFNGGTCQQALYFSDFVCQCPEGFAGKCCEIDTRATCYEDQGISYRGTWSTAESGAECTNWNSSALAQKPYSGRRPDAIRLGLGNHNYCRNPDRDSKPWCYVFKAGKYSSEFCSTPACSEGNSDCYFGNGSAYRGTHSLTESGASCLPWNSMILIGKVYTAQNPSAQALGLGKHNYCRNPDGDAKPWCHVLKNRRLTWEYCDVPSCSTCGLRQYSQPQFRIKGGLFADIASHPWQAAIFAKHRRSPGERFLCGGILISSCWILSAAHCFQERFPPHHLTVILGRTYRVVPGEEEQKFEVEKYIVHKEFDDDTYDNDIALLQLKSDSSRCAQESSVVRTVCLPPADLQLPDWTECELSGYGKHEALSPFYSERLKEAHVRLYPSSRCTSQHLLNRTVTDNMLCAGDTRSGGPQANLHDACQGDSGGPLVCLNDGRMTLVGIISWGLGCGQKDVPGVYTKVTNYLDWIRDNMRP
T5 sequence (P07339 65-412): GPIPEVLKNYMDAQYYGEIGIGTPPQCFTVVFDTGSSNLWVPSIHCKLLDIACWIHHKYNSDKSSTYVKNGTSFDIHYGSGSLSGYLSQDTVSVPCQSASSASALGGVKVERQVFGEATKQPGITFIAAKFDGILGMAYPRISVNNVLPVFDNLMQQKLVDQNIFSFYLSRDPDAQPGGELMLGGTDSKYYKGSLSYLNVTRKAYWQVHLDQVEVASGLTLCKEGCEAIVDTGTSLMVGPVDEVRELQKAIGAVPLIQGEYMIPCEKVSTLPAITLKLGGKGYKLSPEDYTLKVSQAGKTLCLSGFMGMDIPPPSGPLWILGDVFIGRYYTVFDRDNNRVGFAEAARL

COC(=O)c1c(C)oc2ccc(N(C(=O)c3ccncc3)S(=O)(=O)c3ccc(F)cc3C)cc12 [A]
IC50 (Y. pestis Pla): 6.6 µM

NC(N)=NCCC[C@H](N)C(=O)NCC(=O)O [Arg-Gly] (H-Arg-Gly-OH)
Ki (Pla [1]): 5200 µM

NCCCC[C@H](NC(=O)[C@@H](N)CCCN=C(N)N)C(=O)O [Arg-Lys] (H-Arg-Lys-OH)
Ki (Pla [1]): 900 µM

CC(C)[C@H](NC(=O)[C@@H](N)CCCNC(=N)N)C(=O)O [Arg-Val] (H-Arg-Val-OH; N-terminus and C-terminus assumed)
Ki (Pla [1]): 4800 µM

O=S(=O)(Nc1ccccc1-c1ccccc1)c1ccc(Br)s1 [B]
IC50 (Y. pestis Pla): 8.9 µM

COc1ccc(S(=O)(=O)Nc2ccccc2Oc2ccccc2)cc1C [C]
IC50 (Y. pestis Pla): 22 µM

O=S(=O)(Nc1cc(Cl)ccc1Oc1ccccc1)c1ccc2c(c1)OCCO2 [Compound 1]
Plasmin Z-Score at 50 μM (Plasmin): 4.9
Cathepsin-E Z-Score at 50 μM (cathepsin E): −0.1
IC50 (Y. pestis Pla): 4.25 µM
inhibition at 50 µM (HIV-1 protease): 10%
uPA Z-Score at 50 μM [2]: 0.5
Cathepsin-D Z-Score at 50 μM (cathepsin D): −0.2
CC50 [3]: > 100 µM
tPA Z-Score at 50 μM [4]: −0.3

O=S(=O)(Nc1ccccc1-c1ccccc1)c1cccs1 [Compound 2]
Plasmin Z-Score at 50 μM (Plasmin): 1.8
Cathepsin-E Z-Score at 50 μM (cathepsin E): −0.3
IC50 (Y. pestis Pla): 4.3 µM
inhibition at 50 µM (HIV-1 protease): 2%
uPA Z-Score at 50 μM [2]: 0.5
Cathepsin-D Z-Score at 50 μM (cathepsin D): −1.6
CC50 [3]: 62 µM
tPA Z-Score at 50 μM [4]: 0.5

O=S(=O)(Nc1cc(Cl)ccc1Oc1ccccc1)c1cccs1 [Compound 3]
Plasmin Z-Score at 50 μM (Plasmin): 2.5
Cathepsin-E Z-Score at 50 μM (cathepsin E): 0.4
IC50 (Y. pestis Pla): 1 µM
inhibition at 50 µM (HIV-1 protease): 13%
uPA Z-Score at 50 μM [2]: 0.5
Cathepsin-D Z-Score at 50 μM (cathepsin D): 0
CC50 [3]: 49 µM
selectivity ratio [3]: ~50
tPA Z-Score at 50 μM [4]: 0.3

O=[N+]([O-])c1ccccc1S(=O)(=O)Nc1cc(Cl)ccc1Oc1ccccc1 [Compound 4]
Plasmin Z-Score at 50 μM (Plasmin): 1.4
Cathepsin-E Z-Score at 50 μM (cathepsin E): 0.9
IC50 (Y. pestis Pla): 9.9 µM
inhibition at 50 µM (HIV-1 protease): 11%
uPA Z-Score at 50 μM [2]: 1
Cathepsin-D Z-Score at 50 μM (cathepsin D): 0.6
CC50 [3]: 47 µM
tPA Z-Score at 50 μM [4]: 0.4

O=S(=O)(Nc1ccccc1C1=NCCc2ccccc21)c1ccc(Cl)cc1 [D]
IC50 (Y. pestis Pla): 35.8 µM

O=C(O)CN(CCN(CC(=O)O)CC(=O)O)CC(=O)O [EDTA]
Inhibitory effect against Pla (Pla [5]): enhance activity

O=C(O)CN(CCOCCOCCN(CC(=O)O)CC(=O)O)CC(=O)O [EGTA]
Inhibitory effect against Pla (Pla [5]): enhance activity

CC(=O)Nc1ccc(S(=O)(=O)Nc2ccccc2Oc2ccccc2)cc1 [E]
IC50 (Y. pestis Pla): 50.4 µM

COc1ccc(S(=O)(=O)Nc2ccccc2Oc2ccccc2)c(OC)c1 [F]
IC50 (Y. pestis Pla): 52.3 µM

COc1ccc(C)cc1S(=O)(=O)Nc1cc(Cl)ccc1Oc1ccccc1 [G]
IC50 (Y. pestis Pla): 84.2 µM

Cc1ccc(S(=O)(=O)Nc2ccccc2C(=O)c2ccccc2)cc1 [H]
IC50 (Y. pestis Pla): 100 µM

O=S(=O)(Nc1ccccc1Oc1ccccc1)c1cc(Cl)ccc1Cl [I]
IC50 (Y. pestis Pla): 139 µM

NCCCC[C@H](N)C(=O)NCC(=O)O [Lys-Gly] (H-Lys-Gly-OH)
Ki (Pla [1]): 5600 µM

NCCCC[C@H](NC(=O)[C@@H](N)CCCCN)C(=O)O [Lys-Lys]
Ki (Pla [1]): 4500 µM

CC(C)[C@H](NC(=O)[C@@H](N)CCCCN)C(=O)O [Lys-Val, reference compound] (H-Lys-Val-OH; C-terminus assumed)
inhibition at 16000 µM (Y. pestis Pla; read-out: Average inhibition): 60%
Ki (Pla [1]): 8400 µM

CC(C)CC(=O)N[C@H](C(=O)N[C@H](C(=O)N[C@@H](CC(C)C)[C@@H](O)CC(=O)N[C@@H](C)C(=O)N[C@@H](CC(C)C)[C@@H](O)CC(=O)O)C(C)C)C(C)C [pepstatin] (Isovaleryl-VV[Sta]A[Sta]-OH)
Inhibitory effect against Pla (Pla [5]): no inhibitory effect
